In data set [1] the test system is Mycobacterium tuberculosis H37Rv. Description: Alamar blue metabolic readout assay. Type of data set: cell-based. To be noted: for GAS MIC: M. tuberculosis H37Rv, GAS media; for MIC: Mycobacterium tuberculosis, H37RV, read-out: GAS MIC. (Resazurin is reduced to fluorescent resorufin, in cell work by metabolically active cells.)
Data set [2] can be described thus: Microsomal stability assay, mouse. The note with it: mouse hepatic microsomes.
Data set [3] deals with Mycobacterium tuberculosis H37Rv. Put plainly: Alamar blue metabolic readout assay. To be noted: for MIC: Mycobacterium tuberculosis, H37RV, read-out: 7H12 MIC. The format is cell-based.
Data set [4] can be described thus: Microsomal stability assay, marmoset. The note with it: marmoset hepatic microsomes.
A short description of data set [5]: Microsomal stability assay, human. The note with it: human hepatic microsomes.
For data set [6], the system named is Mycobacterium tuberculosis H37Rv. Put plainly: Low oxygen recovery assay. The format is cell-based. To be noted: for MIC: Mycobacterium tuberculosis, H37RV, read-out: LORA MIC.
The conditions of data set [7]: human, microsomes.
Data set [8] in a line: in vitro. To be noted: monkey, microsomes, pH 7.4.
The nature of data set [9]: in vitro. To be noted: mouse, microsomes, pH 7.4.
Data set [10] relates to VERO cells (kidney epithelial cells). Description: Toxicity against VERO cells. The note with it: Chlorocebus sabaeus, Vero, read-out: Vero IC50, toxicity against Vero cells. Type of data set: cell-based.
For data set [11] the following is noted: microsomes.
The conditions of data set [12]: mouse, microsomes.
A short description of data set [13]: in vitro. The note with it: human, microsomes, pH 7.4.
For data set [14] the following is noted: dog, microsomes.
For data set [15] the following is noted: rat, microsomes.
Data set [16] is described as follows: in vitro. The note with it: rat, microsomes, pH 7.4.
Data set [17] can be described thus: in vitro. To be noted: dog, microsomes, pH 7.4.

The record followed here is publication PMC10262914 (Bioorganic chemistry, 2022).

Converted amounts (≈) assume the structure as drawn. Read-outs that look alike come from different tables or passages of the source. Some results are limits rather than exact numbers.

Regarding `[2H]c1c(C([2H])([2H])[2H])cn2c(C(=O)NC([2H])([2H])c3ccc(C(F)(F)F)cc3)c(C([2H])([2H])[2H])nc2c1[2H]` [Compound 57, 2,6-Bis(Methyl-d3)-N-((4-(trifluoromethyl)phenyl)methyl-d2) imidazo[1,2-a]pyridine-7,8-d2-3-carboxamide], the “GAS MIC” value in [1] is 5.7 ± 1.2 nM. Further, the CLint was 78 ml/min/g protein in [2], 60 ml/min/g protein in [4] and 32 ml/min/g protein in data set [5]. Besides, the “7H12 MIC” value in [3] (M. tuberculosis H37Rv, 7H12 media) amounted to 6.7 ± 0.9 nM. The Half-life is reported as 23 min in data set [4] (2 μM compound, 0.5 mg/mL) and 43 min in [5] (2 μM compound, 0.5 mg/mL). Further, the “LORA MIC” value in data set [6] (M. tuberculosis H37Rv, low oxygen "latent" conditions) is >10,000 nM.
With `[2H]c1c(C)cn2c(C(=O)NCc3ccc(C(F)(F)F)cc3)c(C([2H])([2H])[2H])nc2c1[2H]` [Compound 52, 6-Methyl-2-(methyl-d3)-N-(4-(trifluoromethyl)benzyl)imidazo [1,2-a]pyridine-7,8-d2-3-carboxamide], the figures for the CLint in [7], in data set [11] and in data set [12] were 30 ml/min/g protein, 116 ml/min/g protein and 87 ml/min/g protein, respectively. Also, the MIC in data set [1] is 7.4 ± 2.8 nM (≈ 2.61 ng/mL); in data set [3] it was 3.9 ± 1.6 nM (≈ 1.37 ng/mL); in data set [6], over 10000 nM. Further, the results for the half-life at 2 μM in [8], in data set [9] and in data set [13] were 12 min, 16 min and 46 min, respectively. In addition, the 50% inhibitory concentration (IC50) in data set [10] is over 50 µM.
Regarding `[2H]c1c(C([2H])([2H])[2H])c([2H])n2c(C(=O)NCc3ccc(C(F)(F)F)cc3)c(C)nc2c1[2H]` [Compound 30, 2-Methyl-6-(methyl-d3)-N-(4-(trifluoromethyl)benzyl)imidazo [1,2-a]pyridine-5,7,8-d3-3-carboxamide], the CLint was 26 ml/min/g protein in [7]; 64 mL/min/g protein in [14]; 28 mL/min/g protein in data set [15]; 116 ml/min/g protein in data set [11]; 70 ml/min/g protein in data set [12]. Also, the “GAS MIC” value in data set [1] is listed as 9.1 ± 5.8 nM. In addition, the MIC is 9.1 nM (≈ 3.22 ng/mL) in data set [1], 3.8 ± 1.3 nM (≈ 1.34 ng/mL) in data set [3] and over 10000 nM in data set [6]. The half-life at 2 μM came out at 12 min in [8]; 20 min in data set [9]; 50 min in data set [16]; 22 min in [17]; 53 min in [13]. Moreover, the IC50 in [10] is over 50 µM.

Broadly, the MIC is the least concentration at which growth counts as inhibited. One may read the half-life as how long it takes for the measured level to halve. By IC50 is commonly meant the midpoint of a concentration-inhibition curve.
